From PubChem BioAssay (NCI) come the findings set out here.

Among the test systems are CAKI-1 renal; HL-60(TB) leukemia; IGROV1 ovarian; K-562 leukemia; MDA-N; OVCAR-3 ovarian; OVCAR-4 ovarian; OVCAR-8 ovarian; SK-MEL-28 melanoma; SNB-78 CNS.
Common to all, as to test: NCI anticancer screen, dose series, 48 h

Values joined by “and” are separate entries in the source; they are usually repeats but may differ in a detail not shown here. Identical values can stand only once.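 Five concentrations, 48 hours, 96-well plates. At the GI50, growth is halved. The concentration for full growth arrest is given as TGI.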 Some results are limits rather than exact numbers.

On to `Cc1[nH]c2ncn(/N=C/c3ccccc3O)c(=N)c2c1Cc1ccccc1`, for which the TGI in the assay with CAKI-1 renal was more than 100 µM; in the assay on HL-60(TB) leukemia it was 66.8 µM; with IGROV1 ovarian it was more than 100 µM; in the assay on K-562 leukemia, more than 100 µM; in the assay on MDA-N it was 93.8 µM; in the assay on OVCAR-3 ovarian it was 71.8 µM. Also, the TGI in the assay with OVCAR-4 ovarian, in the assay with OVCAR-8 ovarian and in the assay on SK-MEL-28 melanoma was more than 100 µM throughout.

As to `C=CCNC(=S)Nc1sc2c(c1C(=O)OCC)CC(C)CC2` (stereo unspecified), the TGI was more than 100 µM in the assay with CAKI-1 renal; 14.7 µM in the assay with HL-60(TB) leukemia; more than 100 µM in the assay with IGROV1 ovarian; more than 100 µM in the assay on K-562 leukemia; more than 100 µM in the assay with MDA-N; 50.1 µM in the assay on OVCAR-3 ovarian. Further, the TGI with OVCAR-4 ovarian, with OVCAR-8 ovarian and in the assay with SK-MEL-28 melanoma was more than 100 µM throughout.

In the case of `CN(C)CCNc1ccc(C(=O)NCCCN(C)CCCNC(=O)c2ccc(NCCN(C)C)c3c(=O)c4ccccc4[nH]c23)c2[nH]c3ccccc3c(=O)c12`, the TGI in the assay with CAKI-1 renal was 31.8 µM; in the assay on HL-60(TB) leukemia it was 2.74 µM; with IGROV1 ovarian, 0.229 µM; in the assay with K-562 leukemia, 5.27 µM; with MDA-N, 0.583 µM; in the assay with OVCAR-3 ovarian it was 7.5 µM. Moreover, the TGI in the assay with OVCAR-4 ovarian is 0.211 µM; in the assay on OVCAR-8 ovarian, 2.39 µM; in the assay with SK-MEL-28 melanoma, 0.604 µM.

On to `CCC1(O)CC(OC2CC(N(C)C)C(OC3CC4OC5CC(=O)C(C)OC5OC4C(C)O3)C(C)O2)c2c(cc3c(c2O)C(=O)c2c(O)ccc(O)c2C3=O)C1C(=O)OC` (stereo unspecified), for which the GI50 with CAKI-1 renal was 0.00251 µM and 0.00763 µM; in the assay on K-562 leukemia, 0.000761 µM and 0.00754 µM; with OVCAR-3 ovarian, 0.00656 µM and 0.00711 µM; in the assay on SNB-78 CNS it was 0.0126 µM. The TGI in the assay with OVCAR-3 ovarian is 0.0789 µM and 0.0232 µM and < 0.0174 µM; in the assay with SNB-78 CNS it was 0.854 µM and 0.536 µM.

Consider `O=c1[nH]c(=O)n(C2CC(O)C(CO)O2)cc1I` (stereo unspecified), for which the TGI in the assay with CAKI-1 renal, with HL-60(TB) leukemia, in the assay with IGROV1 ovarian, with K-562 leukemia, with MDA-N and in the assay on OVCAR-3 ovarian was more than 100 µM throughout. The TGI in the assay on OVCAR-4 ovarian, with OVCAR-8 ovarian and in the assay on SK-MEL-28 melanoma was more than 100 µM throughout.

Regarding `O=C1c2ccccc2C2CNC1(O)c1ccccc12` (stereo unspecified), the TGI in the assay on CAKI-1 renal, in the assay with HL-60(TB) leukemia, with IGROV1 ovarian, in the assay with K-562 leukemia, in the assay with MDA-N and in the assay on OVCAR-3 ovarian was more than 100 µM each time. The TGI in the assay on OVCAR-4 ovarian, with OVCAR-8 ovarian and in the assay on SK-MEL-28 melanoma was more than 100 µM throughout.

For the molecule `O=C(O)c1ccccc1.[Ag]`, the TGI in the assay on CAKI-1 renal was 9.89 µM; in the assay on HL-60(TB) leukemia, more than 42 µM; with IGROV1 ovarian, 30.6 µM; with K-562 leukemia it was more than 26.4 µM; in the assay with MDA-N it was 19.2 µM; with OVCAR-3 ovarian it was 28.5 µM. Also, the TGI in the assay on OVCAR-4 ovarian was 29.9 µM; in the assay with OVCAR-8 ovarian it was more than 72.7 µM; with SK-MEL-28 melanoma it was 32.4 µM.

On to `CCOC(=O)c1cnc(-n2[nH]c(C)c(CCO)c2=O)[nH]c1=O`, for which the TGI in the assay with CAKI-1 renal, in the assay with HL-60(TB) leukemia, in the assay on IGROV1 ovarian, in the assay with K-562 leukemia, in the assay with MDA-N and in the assay with OVCAR-3 ovarian was more than 100 µM throughout. Further, the TGI in the assay on OVCAR-4 ovarian, with OVCAR-8 ovarian and in the assay with SK-MEL-28 melanoma was more than 100 µM in each case.

Take `Nc1nc(Cl)cc(NCC2(O)CC(CO)C2)n1` (stereo unspecified): the TGI in the assay with CAKI-1 renal, in the assay on HL-60(TB) leukemia, with IGROV1 ovarian, in the assay with K-562 leukemia, in the assay on MDA-N and in the assay with OVCAR-3 ovarian was more than 100 µM throughout. Moreover, the TGI in the assay with OVCAR-4 ovarian, in the assay on OVCAR-8 ovarian and in the assay on SK-MEL-28 melanoma was more than 100 µM each time.

Consider `O=C1Oc2ccccc2C(=O)/C1=C/N1C(=O)N/C(=C\c2ccccc2O)C1=O`, for which the TGI with CAKI-1 renal, in the assay on HL-60(TB) leukemia, in the assay with IGROV1 ovarian, in the assay on K-562 leukemia, with MDA-N and with OVCAR-3 ovarian was more than 100 µM in each case. The TGI in the assay on OVCAR-4 ovarian, in the assay on OVCAR-8 ovarian and with SK-MEL-28 melanoma was more than 100 µM each time.

On to `c1ccc(CNC2CC(NCc3ccccn3)CC(NCc3ccccn3)C2)nc1` (stereo unspecified), for which the GI50 in the assay with CAKI-1 renal is 4.6 µM and 16.3 µM and 4.35 µM; in the assay on HL-60(TB) leukemia, 2.78 µM and 1.23 µM; with K-562 leukemia, 3.45 µM and 12.4 µM and 3.71 µM; in the assay with MDA-N, 2.22 µM; in the assay on OVCAR-3 ovarian, 4.59 µM; in the assay with OVCAR-8 ovarian, 2.88 µM and 7.94 µM and 3.62 µM. In the assay on SK-MEL-28 melanoma, the GI50 is 7.71 µM. Besides, the TGI was 28 µM and 25 µM and 17.2 µM in the assay with CAKI-1 renal; 10.5 µM and 10.2 µM in the assay on HL-60(TB) leukemia; 10.1 µM and 11.1 µM and 22.5 µM in the assay with IGROV1 ovarian; 34.6 µM and 25 µM and 28.3 µM with K-562 leukemia; 12.5 µM and 11.3 µM and 4.78 µM in the assay on MDA-N; 9.72 µM and 12.1 µM and 15.9 µM in the assay on OVCAR-3 ovarian. The TGI with OVCAR-4 ovarian was 9.26 µM and 8.37 µM and 40.9 µM; with OVCAR-8 ovarian, 8.59 µM and 25 µM and 9.53 µM; in the assay with SK-MEL-28 melanoma it was 18.5 µM and 13.3 µM and 26.4 µM.

As for `O=C(O)[C@H]1[C@@H](C2CCCCC2)O[C@@H](C2CCCCC2)O[C@H]1C(F)(F)F`, the TGI in the assay with CAKI-1 renal is 36.4 µM; with HL-60(TB) leukemia, 62.6 µM; with IGROV1 ovarian it was 35.9 µM; in the assay with K-562 leukemia it was more than 100 µM; with MDA-N, 30.7 µM; in the assay on OVCAR-3 ovarian, 39 µM. In addition, the figures for the TGI with OVCAR-4 ovarian, with OVCAR-8 ovarian and in the assay on SK-MEL-28 melanoma were more than 100 µM, 45.5 µM and 41.4 µM, respectively.

Regarding `Cc1nc2c(=S)[nH]ncc2[nH]1`, the TGI in the assay with CAKI-1 renal, with HL-60(TB) leukemia, in the assay with IGROV1 ovarian, in the assay on K-562 leukemia, in the assay on MDA-N and with OVCAR-3 ovarian was more than 100 µM in each case. For the same molecule, the TGI in the assay with OVCAR-4 ovarian, with OVCAR-8 ovarian and in the assay with SK-MEL-28 melanoma was more than 100 µM throughout.
